Laboratory results: US20020048549A1, “Radioactive transition metal nitride heterocomplex” (priority 1996, published 2002)

Test: Biodistribution of 99mTcN-DESI in SD rats (Group A alone, Group B with unlabeled desipramine)
Type: in vivo
Procedure: The biodistribution of the ^99mTcN-DESI in SD rats obtained in Example 15 was measured.
Before being injected into the rats, the ^99mTcN-DESI was separated and purified from the excess and free bidentate ligand by HPLC. The active ingredient of the complex was further purified by passage through a Sep-Pak cartridge activated with 5 ml of 95% ethanol. The final active ingredient was recovered with 95% ethanol and diluted with physiological saline containing 10% Tween 80.
The rats were divided into two groups, group A and group B. Into each rat in group A was injected 20 μCi of the ^99mTcN-DESI. Into each rat in group B were injected 20 μCi of the ^99mTcN-DESI and 1.0 mg/kg of unlabeled desipramine at the same time.
SD rats weighing about 250 g were put under intraperitoneal anesthesia with a mixture of xylazine (18 mg/kg) and ketamine (15 mg/kg) and given an injection in the jugular vein. Then, the organs (brain, heart, lung, liver, spleen, kidney, muscle, adrenal, and submaxillary gland) were excised from the rats at different intervals of time, washed and then weighed. In addition, blood samples were collected and then weighed. The data on the biodistribution are expressed as the mean±significant difference of the percentage of radioactivity level per gram of the organ weight based on the dose of radioactivity, (% dose/g). The measurement was carried out using groups of 3 rats each.

[1] = Group A (complex alone), 10 min
[2] = Group A (complex alone), 30 min
[3] = Group A (complex alone), 60 min
[4] = Group A (complex alone), 120 min
[5] = Group A (complex alone), 150 min

COCCC[P+]1(CCCOC)CCN(CCOC)CC[P+](CCCOC)(CCCOC)[99Tc-2]12(#[N])[NH]C(C(=O)N(C)CCCN1c3ccccc3CCc3ccccc31)C[S]2 (centres unmarked) [^99mTcN-DESI]
Adrenal glands % dose/g (Group A (complex alone), 2 min): 4.227 ± 0.089 % dose/g
Blood % dose/g (Group A (complex alone), 2 min): 0.383 ± 0.287 % dose/g
Brain % dose/g (Group A (complex alone), 2 min): 0.082 ± 0.010 % dose/g
Heart % dose/g (Group A (complex alone), 2 min): 0.904 ± 0.062 % dose/g
Kidney % dose/g (Group A (complex alone), 2 min): 6.518 ± 0.821 % dose/g
Liver % dose/g (Group A (complex alone), 2 min): 7.259 ± 0.005 % dose/g
Lung % dose/g (Group A (complex alone), 2 min): 0.565 ± 0.074 % dose/g
Muscle % dose/g (Group A (complex alone), 2 min): 0.110 ± 0.004 % dose/g
Spleen % dose/g (Group A (complex alone), 2 min): 1.833 ± 0.249 % dose/g
Submaxillary glands % dose/g (Group A (complex alone), 2 min): 1.791 ± 0.249 % dose/g
Adrenal glands % dose/g (Group A (complex alone), 5 min): 3.710 ± 0.682 % dose/g
Blood % dose/g (Group A (complex alone), 5 min): 0.349 ± 0.033 % dose/g
Brain % dose/g (Group A (complex alone), 5 min): 0.079 ± 0.002 % dose/g
Heart % dose/g (Group A (complex alone), 5 min): 0.881 ± 0.071 % dose/g
Kidney % dose/g (Group A (complex alone), 5 min): 6.193 ± 0.421 % dose/g
Liver % dose/g (Group A (complex alone), 5 min): 5.798 ± 0.549 % dose/g
Lung % dose/g (Group A (complex alone), 5 min): 0.425 ± 0.094 % dose/g
Muscle % dose/g (Group A (complex alone), 5 min): 0.105 ± 0.010 % dose/g
Spleen % dose/g (Group A (complex alone), 5 min): 1.927 ± 0.155 % dose/g
Submaxillary glands % dose/g (Group A (complex alone), 5 min): 1.721 ± 0.460 % dose/g
Adrenal glands % dose/g [1]: 5.353 ± 0.339 % dose/g
Blood % dose/g [1]: 0.212 ± 0.012 % dose/g
Brain % dose/g [1]: 0.076 ± 0.003 % dose/g
Heart % dose/g [1]: 0.894 ± 0.016 % dose/g
Kidney % dose/g [1]: 6.295 ± 0.329 % dose/g
Liver % dose/g [1]: 4.539 ± 0.286 % dose/g
Lung % dose/g [1]: 0.399 ± 0.011 % dose/g
Muscle % dose/g [1]: 0.096 ± 0.009 % dose/g
Spleen % dose/g [1]: 2.139 ± 0.200 % dose/g
Submaxillary glands % dose/g [1]: 1.876 ± 0.030 % dose/g
Adrenal glands % dose/g [2]: 5.153 ± 0.039 % dose/g
Blood % dose/g [2]: 0.095 ± 0.024 % dose/g
Brain % dose/g [2]: 0.070 ± 0.005 % dose/g
Heart % dose/g [2]: 0.951 ± 0.103 % dose/g
Kidney % dose/g [2]: 10.11 ± 1.762 % dose/g
Liver % dose/g [2]: 3.069 ± 0.672 % dose/g
Lung % dose/g [2]: 0.351 ± 0.085 % dose/g
Muscle % dose/g [2]: 0.098 ± 0.021 % dose/g
Spleen % dose/g [2]: 1.965 ± 0.158 % dose/g
Submaxillary glands % dose/g [2]: 2.065 ± 0.069 % dose/g
Adrenal glands % dose/g [3]: 4.800 ± 1.737 % dose/g
Blood % dose/g [3]: 0.069 ± 0.008 % dose/g
Brain % dose/g [3]: 0.064 ± 0.003 % dose/g
Heart % dose/g [3]: 0.931 ± 0.025 % dose/g
Kidney % dose/g [3]: 6.227 ± 1.020 % dose/g
Liver % dose/g [3]: 2.809 ± 0.739 % dose/g
Lung % dose/g [3]: 0.224 ± 0.070 % dose/g
Muscle % dose/g [3]: 0.108 ± 0.015 % dose/g
Spleen % dose/g [3]: 1.873 ± 0.667 % dose/g
Submaxillary glands % dose/g [3]: 1.491 ± 1.149 % dose/g
Adrenal glands % dose/g [4]: 4.220 ± 0.182 % dose/g
Blood % dose/g [4]: 0.068 ± 0.001 % dose/g
Brain % dose/g [4]: 0.051 ± 0.001 % dose/g
Heart % dose/g [4]: 0.806 ± 0.080 % dose/g
Kidney % dose/g [4]: 5.538 ± 0.607 % dose/g
Liver % dose/g [4]: 1.463 ± 0.186 % dose/g
Lung % dose/g [4]: 0.151 ± 0.001 % dose/g
Muscle % dose/g [4]: 0.397 ± 0.033 % dose/g
Spleen % dose/g [4]: 1.453 ± 0.085 % dose/g
Submaxillary glands % dose/g [4]: 1.351 ± 0.037 % dose/g
Adrenal glands % dose/g [5]: 5.013 ± 1.061 % dose/g
Blood % dose/g [5]: 0.058 ± 0.008 % dose/g
Brain % dose/g [5]: 0.034 ± 0.004 % dose/g
Heart % dose/g [5]: 0.884 ± 0.075 % dose/g
Kidney % dose/g [5]: 7.182 ± 0.349 % dose/g
Liver % dose/g [5]: 1.375 ± 0.054 % dose/g
Lung % dose/g [5]: 0.194 ± 0.002 % dose/g
Muscle % dose/g [5]: 0.090 ± 0.009 % dose/g
Spleen % dose/g [5]: 1.461 ± 0.132 % dose/g
Submaxillary glands % dose/g [5]: 1.976 ± 0.293 % dose/g
Adrenal glands % dose/g (Group B (with 1.0 mg/kg unlabeled desipramine), 2 min): 4.314 ± 0.718 % dose/g
